# According to paper PMC13635228 (Nature Communications, 2026):
# What was measured:
# C3aR = details: cited from earlier work
# human C3aR = assay: Transducer-coupling assays taken together; type: cell-based
# mouse C3aR = assay: Transducer-coupling assays taken together; type: cell-based
compound,measurement,setting,value
C3a^-d-Arg: C3a with terminal arginine removed by carboxypeptidases; species not stated,activity at human and mouse C3aR,"C3aR; ref [25],[30],[67]",very weak activity
"mC3a: full-length recombinant mouse complement anaphylatoxin C3a (S1-R78), expressed in E. coli",efficacy,human C3aR,full agonists
same,"potency and efficacy, human vs. mouse C3a",mouse C3aR; mouse C3aR,equally potent and efficacious
mC3a-d-Arg: mouse C3a with terminal arginine removed,activity,mouse C3aR; mouse C3aR,weak but measurable activity
"NC(N)=NCCC[C@H](NC(=O)COCC(c1ccccc1)c1ccccc1)C(=O)O [SB290157, reference compound]","agonist profile, G-protein activation",human C3aR; compared to C3a,partial agonist profile
same,βarr recruitment response,human C3aR; compared to C3a,weak response in βarr recruitment
same,activation of mouse C3aR,mouse C3aR; G protein activation or β-arrestin recruitment,did not activate mouse C3aR
same,agonistic activity,"C3aR; various cellular assays, ref [45]-[47]",agonistic activity
"hC3a: full-length recombinant human complement anaphylatoxin C3a, natural agonist of C3aR, expressed in E. coli",efficacy,human C3aR,full agonists
same,"potency, human vs. mouse C3a",human C3aR,more potent
same,"potency and efficacy, human vs. mouse C3a",mouse C3aR; mouse C3aR,equally potent and efficacious
